According to patent US5631401A, “Inhibitors of protein farnesyltransferase and squalene synthase” (Abbott Laboratories, priority 1995, dated 1997):

Biological target: T1, Rat brain protein farnesyltransferase (Rattus norvegicus, UniProt Q02293+Q04631)
T1 construct: The enzyme was purified according to Reiss, Y., et al., Cell, 62: 81-88 (1990), utilizing steps one through three; from tissue; host or cells: rat brain
Assay: In vitro inhibition of protein farnesyltransferase (biotin-lamin substrate, scintillation proximity assay)
Assay type: biochemical
Settings: 1 μM (footnote *); read-out: % Inhibition at 1 μM (protein farnesyltransferase, values marked *)
Protocol: In vitro inhibition of protein farnesyltransferase may be measured by the following procedure. (Procedures for determination of the inhibition of farnesylation of the oncogene protein Ras are described by Goldstein, et al., J. Biol. Chem., 266: 15575-15578 (1991) and by Singh in U.S. Pat. No. 5,245,061 both of which are incorporated herein by reference.)
Rat brain protein farnesyltransferase activity was measured using the biotin-lamin substrate (which is known to undergo farnesylation in a manner analogous to Ras protein) and radioactive farnesyl diphosphate provided by Amersham Life Science in their commercial scintillation proximity assay kit for the determination of farnesyltransferase. The enzyme was purified according to Reiss, Y., et al., Cell, 62: 81-88 (1990), utilizing steps one through three. The specific activity of the enzyme was approximately 10 nmol substrate farnesylated/mg enzyme/hour. […]

Row | Structure (SMILES) | inhibition at 1 µM
1 | C[C@H](C/C=C/c1ccccc1)CN(Cc1ccccc1)C(=O)[C@H]1[C@H](C(=O)O)[C@H](C(=O)N(Cc2ccccc2)C[C@H](C)C/C=C/c2ccccc2)[C@H]1C(=O)O [Example 86, (1α,2β,3β,4α)-1,3-Di [N-benzyl-N-{(E)-(2R)-2-methyl-5-phenyl-4-pentenyl}aminocarbonyl]cyclobutane-2,4-dicarboxylic acid] | 61%
2 | O=C(O)[C@H]1[C@H](C(=O)N(Cc2ccc(Oc3ccccc3)cc2)Cc2ccc3ccccc3c2)[C@H](C(=O)O)[C@H]1C(=O)N(Cc1ccc(Oc2ccccc2)cc1)Cc1ccc2ccccc2c1 [Example 81, (1α,2β,3β,4α)-1,3-Di [N-(4-phenoxybenzyl)-N-(2-methylnaphthyl)aminocarbonyl]cyclobutane-2,4-dicarboxylic acid] | 62%
3 | O=C(O)[C@H]1[C@H](C(=O)N(CCO)Cc2ccc(Oc3ccccc3)cc2)[C@H](C(=O)O)[C@H]1C(=O)N(CCO)Cc1ccc(Oc2ccccc2)cc1 [Example 74, (1α,2β,3β,4α)-1,3-Di[N-(2-hydroxyethyl)-N-(4-phenoxybenzyl)aminocarbonyl]cyclobutane-2,4-dicarboxylic acid] | 22%
4 | C[C@H](CCCc1ccccc1)CN(Cc1ccccc1)C(=O)[C@H]1[C@H](C(=O)O)[C@H](C(=O)N(Cc2ccccc2)C[C@H](C)CCCc2ccccc2)[C@H]1C(=O)O [Example 85, (1α,2β,3β,4α)-1,3-Di[N-benzyl-N-((2R)-5-phenyl-2-methylpentyl)aminocarbonyl]cyclobutane-2,4-dicarboxylic acid] | 58%
5 | CC(=O)OC(CCCN(Cc1ccccc1)C(=O)C1C(C(=O)O)C(C(=O)N(CCCC(OC(C)=O)C(C)Cc2ccccc2)Cc2ccccc2)C1C(=O)O)C(C)Cc1ccccc1 (stereo not drawn) [Example 84, (1α,2β,3β,4α)-1,3-Di [N-benzyl-N-{syn-(4-acetoxy-5-methyl) -6-phenylhexyl}aminocarbonyl]cyclobutane-2,4-dicarboxylic acid] | 93%
6 | O=C(O)CN(Cc1ccc(Oc2ccccc2)cc1)C(=O)C1C(C(=O)O)C(C(=O)N(CC(=O)O)Cc2ccc(Oc3ccccc3)cc2)C1C(=O)O (stereo not drawn) [Example 43, (1α,2β,3β,4α)-1,3-Di[N-carboxymethyl-N-(4-phenoxybenzyl)aminocarbonyl]cyclobutane-2,4-dicarboxylic acid] | 54%
7 | CCCN(CC=C=Cc1ccccc1)C(=O)C1C(C(=O)O)C(C(=O)N(CC=C=Cc2ccccc2)CCC)C1C(=O)O (stereo not drawn) [Example 60, (1α,2β,3β,4α)-1,3-Di[N-propyl-N-(4-phenyl-2,3-butadien-1-yl)aminocarbonyl]cyclobutane-2,4-dicarboxylic acid] | 23%
8 | CCCN(C[C@H](C)CCCc1ccccc1)C(=O)[C@H]1[C@H](C(=O)O)[C@H](C(=O)N(CCC)C[C@H](C)CCCc2ccccc2)[C@H]1C(=O)O [Example 82, (1α,2β,3β,4α)-1,3-Di [N-((2R)-2-methyl-5-phenylpentyl)-N-(n-propyl)aminocarbonyl]cyclobutane-2,4-dicarboxylic acid] | 21%
9 | CCCN(Cc1ccc(Oc2nccs2)cc1)C(=O)C1C(C(=O)O)C(C(=O)N(CCC)Cc2ccc(Oc3nccs3)cc2)C1C(=O)O (centres unmarked) [Example 55] | 22%
10 | CCCN(Cc1ccc(COc2ccccc2)cc1)C(=O)C1C(C(=O)O)C(C(=O)N(CCC)Cc2ccc(COc3ccccc3)cc2)C1C(=O)O (stereo not drawn) [Example 65, (1α,2β,3β,4α)-1,3-Di[N-propyl-N-(4-phenoxymethylbenzyl)aminocarbonyl]-2,4-cyclobutanedicarboxylic acid] | 52%

Same assay, conditions: 10 μM; compared to uninhibited control

Row | Structure (SMILES) | inhibition at 10 µM
11 | O=C(O)[C@H]1[C@H](C(=O)N(Cc2ccc(Oc3ccccc3)cc2)Cc2ccc3oc4ccccc4c3c2)[C@H](C(=O)O)[C@H]1C(=O)N(Cc1ccc(Oc2ccccc2)cc1)Cc1ccc2oc3ccccc3c2c1 [Example 95, (1α,2β,3β,4α)-1,3-Di[N-(dibenzofuran-2-ylmethyl)-N-(4-phenoxybenzyl)aminocarbonyl]cyclobutane-2,4-dicarboxylic acid] | 55%
12 | O=C(O)[C@H]1[C@H](C(=O)OCc2ccc(Oc3ccccc3)cc2)[C@H](C(=O)O)[C@H]1C(=O)OCc1ccc(Oc2ccccc2)cc1 [Example 36, (1α,2β,3β,4α)-1,3-Di[4-phenoxybenzyloxycarbonyl]cyclobutane-2,4-dicarboxylic acid] | 24%
13 | CCCN(Cc1ccc(Oc2ccccc2)o1)C(=O)C1C(C(=O)O)C(C(=O)N(CCC)Cc2ccc(Oc3ccccc3)o2)C1C(=O)O (stereo not drawn) [Example 52, (1α,2β,3β,4α)-1,3-Di[N-propyl-N-(5-phenoxyfurfuryl)aminocarbonyl]cyclobutane-2,4-dicarboxylic acid] | 51%
14 | COc1ccc2c(c1)CCN(C(=O)C1C(C(=O)O)C(C(=O)N3CCc4cc(OC)ccc4C3)C1C(=O)O)C2 (stereo not drawn) [Example 49, (1α,2β,3β,4α)-1,3-Di[6-methoxy-1,2,3,4-tetrahydroisoquinolin-2-ylcarbonyl]cyclobutane-2,4-dicarboxylic acid] | 23%
15 | CCCN(Cc1ccc(Oc2ccc3c(c2)OCO3)cc1)C(=O)C1C(C(=O)O)C(C(=O)N(CCC)Cc2ccc(Oc3ccc4c(c3)OCO4)cc2)C1C(=O)O (stereo not drawn) [Example 48, (1α,2β,3β,4α)-1,3-Di[N-propyl-N-(4-(3,4-methylenedioxyphenoxy)benzyl)aminocarbonyl]cyclobutane-2,4-dicarboxylic acid] | 61%
16 | CCCN(Cc1ccc(Oc2ccccc2)cc1)C(=O)[C@H]1[C@H](C(=O)O)[C@H](C(=O)N(C)CC/C=C(\C)CCC=C(C)C)[C@H]1C(=O)O (relative stereo) [Example 41, (1α,2β,3β,4α)-1-[N-Propyl-N-(4-phenoxybenzyl)aminocarbonyl]-3-[N-methyl-N-(homogeranyl)aminocarbonyl]cyclobutane-2,4-dicarboxylic acid] | 63%
17 | CCCN(Cc1ccc(Oc2ccccc2C)cc1)C(=O)C1C(C(=O)O)C(C(=O)N(CCC)Cc2ccc(Oc3ccccc3C)cc2)C1C(=O)O (stereo not drawn) [Example 50, (1α,2β,3β,4α)-1,3-Di[N-propyl-N-(4-(2-methylphenoxy)benzyl)aminocarbonyl]cyclobutane-2,4-dicarboxylic acid] | 35%
18 | CCCN(CCCCCc1ccccc1)C(=O)[C@H]1[C@H](C(=O)O)[C@H](C(=O)N(CCC)CCCCCc2ccccc2)[C@H]1C(=O)O [Example 38, (1α,2β,3β,4α)-1,3-Di[N-propyl-N-(5-phenylpentyl)aminocarbonyl]cyclobutane-2,4-dicarboxylic acid] | 85%
19 | CCCN(CC#CCc1ccccc1)C(=O)[C@H]1[C@H](C(=O)O)[C@H](C(=O)N(CC#CCc2ccccc2)CCC)[C@H]1C(=O)O [Example 61, (1α,2β,3β,4α)-1,3-Di{N-propyl-N-(4-phenylbut-2-yn-1-yl)aminocarbonyl}cyclobutane-2,4-dicarboxylic acid] | 73%
20 | CCCN(Cc1ccc(OC2CCCCC2)cc1)C(=O)[C@H]1[C@H](C(=O)O)[C@H](C(=O)N(CCC)Cc2ccc(OC3CCCCC3)cc2)[C@H]1C(=O)O [Example 37, (1α,2β,3β,4α)-1,3-Di[N-propyl-N-(4-cyclohexyloxybenzyl)aminocarbonyl]cyclobutane-2,4-dicarboxylic acid] | 22%
